The results in this text go back to ChEMBL document CHEMBL5096193, “Potential pharmacological strategies targeting the Niemann-Pick C1 receptor and Ebola virus glycoprotein interaction” (Eur J Med Chem, 2021).

Structures are written as SMILES.

Assay [1] is described as follows: Inhibition of NPC1/VSV pseudotyped Ebola Viral Glycoprotein protein-protein interaction. Also noted: species or system Ebolavirus.
In assay [2] the test system is Ebolavirus. In words: Antiviral activity against Ebola virus makona. It counts as functional, organism-based. To be noted: Orthoebolavirus.
In assay [3] the test system is Ebolavirus. In words: Antiviral activity against Ebola virus infected in African green monkey Vero E6 cells assessed as reduction in viral titer infected for 1 hr followed by compound addition and measured after 5 days by immunofocus assay. The class given is functional, organism-based. The settings on record: Orthoebolavirus, Vero C1008.
The test system of assay [4] is Ebolavirus. In words: Antiviral activity against HIV based pseudotyped virus expressing Ebola-GP infected in human A549 cells assessed as inhibition of viral infection preincubated upto 12 hrs followed by viral infection and measured after 48 hrs. The settings on record: Orthoebolavirus, time 60 hrs. The class given is functional.
For the next assay, the system named is Zaire ebolavirus. The assay is described as follows: Antiviral activity against Zaire ebolavirus infected in african green monkey assessed as reduction in viral infection preincubated for 1 hr followed by viral infection 1 hr and measured after 8 days by crystal violet staining based plaque assay. The class given is functional, organism-based, Vero E6. To be noted: Vero C1008.

Assay [5] deals with Ebolavirus. The assay is described as follows: Antiviral activity against HIV based pseudotyped virus expressing Ebola-GP infected in human HeLa cells assessed as reduction in viral infection preincubated for 1 hrs followed by viral infection and measured after 48hrs by Steady-Glo luciferase assay. The settings on record: Orthoebolavirus. The class given is functional, organism-based.

In assay [6] the test system is Ebolavirus. The assay is described as follows: Antiviral activity against HIV based pseudotyped virus expressing Ebola-GP infected in human 293T cells assessed as inhibition of viral infection preincubated for 1 hr followed by viral infection 1 hr and measured after 72 hrs. To be noted: Orthoebolavirus, 293TA; time 74 hrs. It counts as functional.
Assay [7] concerns Ebolavirus. The assay is described as follows: Antiviral activity against Zaire Ebola virus infected in African green monkey assessed as reduction in viral infection incubated for 48hrs by GFP fluorescence based method. It counts as functional, organism-based, Vero E6. To be noted: Orthoebolavirus, Vero C1008, 48 h.
For assay [8], the system named is Ebolavirus. The assay is described as follows: Antiviral activity against Ebola virus. The class given is functional, organism-based. To be noted: Orthoebolavirus.
Assay [9] relates to Ebolavirus. In words: Antiviral activity against VSV based pseudotyped virus expressing Ebola-GP infected in […] cells assessed as reduction in viral infection incubated for 24 hrs by linear regression analysis. The settings on record: Orthoebolavirus. It counts as functional, organism-based.
Assay [10] relates to Ebolavirus. The assay is described as follows: Antiviral activity against Ebola virus infected in […] cells assessed as reduction in viral infection incubated for 10 days by crystal violet staining based method. The class given is functional, organism-based. The settings on record: Orthoebolavirus, 240 h.

As a reminder, the IC50 is the concentration that gives 50% inhibition. As usually defined, the EC50 is the midpoint of the concentration-response curve. The compound `COC(=O)c1ccc(COc2ccccc2CN2CCN(C(=O)CNC(=O)CC34CC5CC(CC(C5)C3)C4)CC2)cc1` registered an IC50 in assay [1] of 0.13 µM. A half-maximal response with Ebolavirus [2] (EC50) required 0.16 µM. As to `NC(=O)c1nc(F)cnc1O` [FAVIPIRAVIR], the IC50 with Ebolavirus [3] turned out to be 67 µM. `O=C(CC12CC3CC(CC(C3)C1)C2)NCC(=O)N1CCN(Cc2ccccc2)CC1` had an IC50 in assay [1] of 1.6 µM.

As usually defined, the IC90 is the concentration needed for an effect of 90%. `CCOc1ccc(NC(=O)CSc2nnc(COc3cccc(N(C)C)c3)n2-c2ccccc2)cc1`: the 90% effect concentration (IC90) with Ebolavirus [4] is 25.7 µM. The IC50 with Zaire ebolavirus stood at 10 µM. `O=C(CN1CCCC1)NNc1ccccc1Sc1cc(Cl)ccc1[N+](=O)[O-]`: the IC50 in the assay with Ebolavirus [5] turned out to be 2.04 µM. In the case of `FC(C1=Nc2ccccc2N=C(c2ccccc2)C1)C(F)(F)F` (configuration not stated), the IC90 in the assay with Ebolavirus [6] was found to be 12.1 µM. Also, the IC50 with Ebolavirus [7] was 10 µM. As to `O=C(CNCCC1CCN(Cc2ccccc2)CC1)Nn1c2ccccc2c2ccccc21`, the IC50 in the assay on Ebolavirus [5] stood at 0.37 µM. Same read-out and setting: the value for `CCN(CC)CC(=O)NNc1ccccc1Sc1cc(Cl)ccc1[N+](=O)[O-]` was 4.69 µM.

As for `COc1ccc(S(=O)(=O)N(CC(=O)Nc2ccccc2-c2ccccc2)c2ccc(C)cc2)cc1`, the IC90 with Ebolavirus [4] was determined as 8.6 µM. The IC50 with Zaire ebolavirus was 8.07 µM. In the assay on Ebolavirus [8], `CN(C)CCOc1ccc(/C(=C(/CCCl)c2ccccc2)c2ccccc2)cc1` [TOREMIFENE] had a half-maximal inhibitory concentration (IC50) of 0.162 µM. For the compound `C[C@]12CC3CC(C(=O)N[C@H]4CC[C@H](N)CC4)(C1)C[C@@](c1ccccc1)(C3)C2`, the EC50 in the assay with Ebolavirus [9] and with Ebolavirus [10] was 0.24 µM throughout. Take `CCC(CC)COC(=O)[C@H](C)N[P@](=O)(OC[C@H]1O[C@@](C#N)(c2ccc3c(N)ncnn23)[C@H](O)[C@@H]1O)Oc1ccccc1` [REMDESIVIR]: half-maximal inhibition in the assay on Ebolavirus [2] (IC50) required 86 µM.
